Measurements taken from patent US11130769B2 (Prelude Therapeutics Incorporated, priority 2018, dated 2021).
Read-outs that look alike come from different tables or passages of the source. One block for each compound: values may come before it.

Assays:
MCL-1 = MCL-1 (Homo sapiens (Human), UniProt Q07820); test: Cell free Mcl-1:Bim affinity assay (fluorescence polarization competition); type: binding; conditions: 15 nM MCL-1, 5 nM FITC-Bim, 1 hour at room temperature, read-out: BIM_Ki
How it was run: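 Fluorescence polarization competition: 10-point 3-fold compound dilutions displaced 5 nM FITC-Bim from 15 nM MCL-1 over 1 h at room temperature. Ki was derived from the fitted IC50 using the Nikolovska-Coleska equation, with percent inhibition normalized to DMSO and positive controls.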

H929 cells = test: Cell viability assay (H929 10 FBS); type: cell-based; conditions: Homo sapiens, NCI-H929, 24 hours, read-out: H929_10FBS IC50
How it was run: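 ATP-based luminescence (CellTiter-Glo or ATPlite 1 Step, 30-60 min at RT) gauged viability of H929 myeloma cells after 24 h compound treatment at 37 °C. Cells plated at 4000 per well in 10% FBS RPMI 1640 supplemented with pyruvate, HEPES and glucose.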

MCL-1, sequence (Q07820 whole entry): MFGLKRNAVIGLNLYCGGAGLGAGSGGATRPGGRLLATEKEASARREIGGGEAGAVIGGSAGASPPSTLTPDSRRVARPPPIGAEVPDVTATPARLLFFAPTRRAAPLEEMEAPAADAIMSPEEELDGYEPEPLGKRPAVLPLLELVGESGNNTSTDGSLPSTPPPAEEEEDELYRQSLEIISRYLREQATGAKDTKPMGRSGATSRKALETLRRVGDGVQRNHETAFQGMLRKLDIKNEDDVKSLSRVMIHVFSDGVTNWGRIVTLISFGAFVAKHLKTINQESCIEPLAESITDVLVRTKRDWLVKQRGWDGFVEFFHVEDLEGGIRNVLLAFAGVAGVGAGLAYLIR

SMILES: CC1(C)OC/C=C/[C@H](OCC(=O)N[C@@H]2CCOC2)[C@@H]2CC[C@H]2CN2C[C@@]3(CCCc4cc(Cl)ccc43)COc3ccc(cc32)S(=O)(=O)NC1=O [Example 284, 2-[(3R,6R,7S,8E,22S)-6′-Chloro-12,12-dimethyl-13,15,15-trioxo-spiro[11,20-dioxa-15λ6-thia-1,14-diazatetracyclo[14.7.2.03,6.019,24]pentacosa-8,16,18,24-tetraene-22,1′-tetralin]-7-yl]oxy-N-[(3R)-tetrahydrofuran-3-yl]acetamide]
Ki (MCL-1; class symbols): < 1 nM | IC50 (H929 cells): < 500 nM

SMILES: CN(C)C(=O)O[C@H]1/C=C/COC2(CCC2)C(=O)NS(=O)(=O)c2ccc3c(c2)N(C[C@@H]2CC[C@H]21)C[C@@]1(CCCc2cc(Cl)ccc21)CO3 [Example 231, [(3R,6R,7S,8E,22S)-7′-Chloro-12,12-(1,3-propylene)-13,15,15-trioxo-spiro[11,20-dioxa-15λ6-thia-1,14-diazatetracyclo[14.7.2.03,6.019,24]pentacosa-8,16,18,24-tetraene-22,4′-chromane]-7-yl] N,N-dimethyl-1-carboxylate]
Ki (MCL-1; class symbols): < 1 nM | IC50 (H929 cells): < 500 nM

SMILES: CC1(C)OC/C=C/[C@H](OCCN2CC(F)(F)C2)[C@@H]2CC[C@H]2CN2C[C@@]3(CCCc4cc(Cl)ccc43)COc3ccc(cc32)S(=O)(=O)NC1=O [Example 258, (3R,6R,7S,8E,22S)-6′-Chloro-7-[2-(3,3-difluoroazetidin-1-yl)ethoxy]-12,12-dimethyl-15,15-dioxo-spiro[11,20-dioxa-15-thia-1,14-diazatetracyclo[14.7.2.03,6.019,24]pentacosa-8,16,18,24-tetraene-22,1′-tetralin]-13-one]
Ki (MCL-1; class symbols): < 1 nM | IC50 (H929 cells): < 500 nM

SMILES: CN1C/C=C/[C@H](OC(=O)N[C@H]2CCOC2)[C@@H]2CC[C@H]2CN2C[C@@]3(CCCc4cc(Cl)ccc43)COc3ccc(cc32)S(=O)(=O)NC(=O)C1(C)C [Example 212, [(3R,6R,7S,8E,22S)-6′-Chloro-11,12,12-trimethyl-13,15,15-trioxo-spiro[20-oxa-15-thia-1,11,14-triazatetracyclo[14.7.2.03,6.019,24]pentacosa-8,16,18,24-tetraene-22,1′-tetralin]-7-yl] N-[(3S)-tetrahydrofuran-3-yl]carbamate]
Ki (MCL-1; class symbols): < 1 nM | IC50 (H929 cells): < 500 nM

SMILES: CC(=O)NS(=O)(=O)c1ccc2c(c1)N(CC1CCC1)C[C@@]1(CCCc3cc(Cl)ccc31)CO2 [Example 12, N-[(3S)-6′-Chloro-5-(cyclobutylmethyl)spiro[2,4-dihydro-1,5-benzoxazepine-3,1′-tetralin]-7-yl]sulfonylacetamide]
Ki (MCL-1; numeric values): 15.8 nM | IC50 (H929 cells): > 1000 nM

SMILES: CN(C)C(=O)O[C@H]1/C=C/CN2CCC[C@H]2C(=O)NS(=O)(=O)c2ccc3c(c2)N(C[C@@H]2CC[C@H]21)C[C@@]1(CCCc2cc(Cl)ccc21)CO3 [Example 294, [(3R,6R,7S,8E,15S,25S)-6′-Chloro-16,18,18-trioxo-spiro[23-oxa-18-thia-1,11,17-triazapentacyclo[17.7.2.03,6.011,15.022,27]octacosa-8,19,21,27-tetraene-25,1′-tetralin]-7-yl] N,N-dimethylcarbamate]
Ki (MCL-1; class symbols): 1 to 100 nM | IC50 (H929 cells): < 500 nM

SMILES: COC[C@@H]1CCCN1C(=O)O[C@H]1/C=C/COC(C)(C)C(=O)NS(=O)(=O)c2ccc3c(c2)N(C[C@@H]2CC[C@H]21)C[C@@]1(CCCc2cc(Cl)ccc21)CO3 [Example 160, [(3R,6R,7S,8E,22S)-6′-Chloro-12,12-dimethyl-13,15,15-trioxo-spiro[11,20-dioxa-15-thia-1,14-diazatetracyclo[14.7.2.03,6.019,24]pentacosa-8,16,18,24-tetraene-22,1′-tetralin]-7-yl] (2S)-2-(methoxymethyl)pyrrolidine-1-carboxylate]
Ki (MCL-1; class symbols): < 1 nM | IC50 (H929 cells): < 500 nM

The remaining lines, values ahead:

Ki (MCL-1; class symbols): 1 to 100 nM | IC50 (H929 cells): > 1000 nM
SMILES: CN1C/C=C/[C@H](O)[C@@H]2CC[C@H]2CN2C[C@@]3(CCCc4cc(Cl)ccc43)COc3ccc(cc32)S(=O)(=O)NC(=O)C1(C)C [Example 43, (3R,6R,7S,8E,22S)-6′-Chloro-7-hydroxy-11,12,12-trimethyl-15,15-dioxo-spiro[20-oxa-15-thia-1,11,14-triazatetracyclo[14.7.2.03,6.019,24]pentacosa-8,16,18,24-tetraene-22,1′-tetralin]-13-one]

Ki (MCL-1; class symbols): 1 to 100 nM | IC50 (H929 cells): > 1000 nM
SMILES: O=C1Cc2ccn(n2)CC(=O)N2CCC(C2)CN2C[C@@]3(CCCc4cc(Cl)ccc43)COc3ccc(cc32)S(=O)(=O)N1 (stereo partly drawn) [Example 297, (23S)-6′-Chloro-16,16-dioxo-spiro[21-oxa-thia-1,6,9,15,27-pentazapentacyclo[15.7.2.13,6.19,12.020,25]octacosa-10,12(27),17,19,25-pentaene-23,1′-tetralin]-7,14-dione]

Ki (MCL-1; class symbols): < 1 nM | IC50 (H929 cells): < 500 nM
SMILES: CN1CCN(CCNC(=O)O[C@H]2/C=C/COC(C)(C)C(=O)NS(=O)(=O)c3ccc4c(c3)N(C[C@@H]3CC[C@H]32)C[C@@]2(CCCc3cc(Cl)ccc32)CO4)CC1 [Example 149, [(3R,6R,7S,8E,22S)-6′-Chloro-12,12-dimethyl-13,15,15-trioxo-spiro[11,20-dioxa-15-thia-1,14-diazatetracyclo[14.7.2.03,6.019,24]pentacosa-8,16,18,24-tetraene-22,1′-tetralin]-7-yl] N-[2-(4-methylpiperazin-1-yl)ethyl]carbamate]

Ki (MCL-1; class symbols): 1 to 100 nM | IC50 (H929 cells): > 1000 nM
SMILES: CO[C@H]1/C=C/C[C@H](C)[C@@H](C)C(=O)NS(=O)(=O)c2ccc3c(c2)N(C[C@@H]2CC[C@H]21)C[C@@]1(CCCc2cc(Cl)ccc21)CO3 [Example 79, (3R,6R,7S,8E,11S,12R,22S)-6′-Chloro-7-methoxy-11,12-dimethyl-15,15-dioxo-spiro[20-oxa-15-thia-1,14-diazatetracyclo[14.7.2.03,6.019,24]pentacosa-8,16,18,24-tetraene-22,1′-tetralin]-13-one]

Ki (MCL-1; class symbols): 1 to 100 nM | IC50 (H929 cells): > 1000 nM
SMILES: CO[C@@H]1/C=C\CN[C@@H](C)C(=O)NS(=O)(=O)c2ccc3c(c2)N(C[C@@H]2CC[C@H]21)C[C@@]1(CCCc2cc(Cl)ccc21)CO3 [Example 118, (3R,6R,7R,8Z,12S,22S)-6′-Chloro-7-methoxy-12-methyl-15,15-dioxo-spiro[20-oxa-15-thia-1,11,14-triazatetracyclo[14.7.2.03,6.019,24]pentacosa-8,16(25),17,19(24)-tetraene-22,1′-tetralin]-13-one]

Ki (MCL-1; class symbols): < 1 nM | IC50 (H929 cells): < 1000 nM
SMILES: CO[C@@H]1/C=C/COC2(CC2)C(=O)NS(=O)(=O)c2ccc3c(c2)N(C[C@@H]2CC[C@H]21)C[C@@]1(CCCc2cc(Cl)ccc21)CO3 [Example 29, (3R,6R,7R,8E,22S)-6′-Chloro-7-methoxy-12,12-ethylene-15,15-dioxo-spiro[[11,20]dioxa-15-thia-1,14-diazatetracyclo[14.7.2.03,6.019,24]pentacosa[8,16(25),17,19(24)]tetraene-22,1′-tetralin]-13-one]

Ki (MCL-1; numeric values): 8.7 nM | IC50 (H929 cells): > 1000 nM
SMILES: Cc1cc(CC(=O)NS(=O)(=O)c2ccc3c(c2)N(CC2CCC2)C[C@@]2(CCCc4cc(Cl)ccc42)CO3)nn1C [Example 15, 2-(1,5-Dimethylpyrazol-3-yl)-N-[(3S)-6′-chloro-5-(cyclobutylmethyl)spiro[2,4-dihydro-1,5-benzoxazepine-3,1′-tetralin]-7-yl]sulfonyl-acetamide]
